# From US9708314B2, “Heterocyclic amide compound” (NISSAN CHEMICAL INDUSTRIES, LTD., priority 2013, dated 2017)
# Columns and labels:
# Type in all cases: in vivo
# [1] = system: Echinochloa oryzacola Vasing.; test: Test Example 1: herbicidal activity, application before weed generation in submerged conditions; conditions: Application herbicide amount 320 g/ha; Seventeenth Table
# Summary of the method: (§1)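 Water-diluted emulsion formulation is applied onto flood water (4 cm deep) covering alluvial soil on the day weed seeds are sown, after transplanting 2.5 leaf stage rice. Rates are expressed per hectare. Injury or control is graded 0–5 three weeks later.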
# Monochoria vaginalis [2] = test: as above; conditions: Application herbicide amount 320 g/ha; Seventeenth Table
# Summary of the method: as §1
# Scirpus juncoides [3] = test: as above; conditions: Application herbicide amount 320 g/ha; Seventeenth Table
# Summary of the method: as §1
# [4] = system: directly sowed Oryza sativa; test: Test Example 3: effect on crop by application to foliage (Wagner pot, water depth 0.1-0.5 cm); conditions: Nineteenth Table; application to foliage; application herbicide amount 320 g/ha
# Summary of the method: (§2)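 Greenhouse pot test, 25–30 °C, alluvial soil. Sown seedlings grown 14 days then sprayed on leaves and stems with emulsion diluted to target g/ha. Rating at 3 weeks, 0–5 scale (0 ≤5%, 5 ≥90%).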
# Cyperus difformis = test: Test Example 3: herbicidal effect by application to foliage (Wagner pot, water depth 0.1-0.5 cm); conditions: Nineteenth Table; application to foliage; application herbicide amount 320 g/ha
# Summary of the method: as §2
# Leptochloa chinensis = test: as above; conditions: Nineteenth Table; application to foliage; application herbicide amount 320 g/ha
# Summary of the method: as §2
# [5] = system: Echinochloa crus-galli var. crus-galli; test: as above; conditions: Nineteenth Table; application to foliage; application herbicide amount 320 g/ha
# Summary of the method: as §2
# [6] = system: Echinochloa oryzacola Vasing.; test: Test Example 2: herbicidal activity, application during weed generation in submerged conditions; conditions: Eighteenth Table; application herbicide amount 320 g/ha
# Summary of the method: (§3)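 Seeds were sown together in alluvial soil kept under 4 cm of water and grown at 25 °C to 30 °C. Once plants reached the one- to two-leaf stage, the diluted emulsion was applied to the water surface at a predetermined g/ha amount, and effects were rated 0–5 after three weeks.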
# Monochoria vaginalis [7] = test: as above; conditions: Eighteenth Table; application herbicide amount 320 g/ha
# Summary of the method: as §3
# Scirpus juncoides [8] = test: as above; conditions: Eighteenth Table; application herbicide amount 320 g/ha
# Summary of the method: as §3
Compound,A: Echinochloa oryzicola Vasing. (herbicidal effect grade) [1],C: Monochoria vaginalis (herbicidal effect grade) (Monochoria vaginalis [2]),B: Scirpus juncoides (herbicidal effect grade) (Scirpus juncoides [3]),b (effect on crop grade) [4],E (herbicidal effect grade) (Cyperus difformis),D (herbicidal effect grade) (Leptochloa chinensis),H (herbicidal effect grade) [5],A (Echinochloa oryzicola Vasing.) herbicidal ratio grade [6],C (Monochoria vaginalis) herbicidal ratio grade (Monochoria vaginalis [7]),B (Scirpus juncoides) herbicidal ratio grade (Scirpus juncoides [8])
COCCN(C)c1nnc2c(C(=O)Nc3nnc(C)o3)ccc(C(F)(F)F)n12 [1-129],5 (Herbicidal ratio of 90% or more (almost completely withered)),3 (Herbicidal ratio of 40% or more and less than 70%),4 (Herbicidal ratio of 70% or more and less than 90%),3 (Herbicidal ratio of 40% or more and less than 70%),4 (Herbicidal ratio of 70% or more and less than 90%),5 (Herbicidal ratio of 90% or more (almost completely withered)),5 (Herbicidal ratio of 90% or more (almost completely withered)),3 (Herbicidal ratio of 40% or more and less than 70%),3 (Herbicidal ratio of 40% or more and less than 70%),4 (Herbicidal ratio of 70% or more and less than 90%)
Cc1nnc(NC(=O)c2ccc(C(F)(F)F)n3c(NCC(F)(F)F)nnc23)o1 [1-131],2 (Herbicidal ratio of 20% or more and less than 40%),0 (Herbicidal ratio of 5% or less (almost no effect)),1 (Herbicidal ratio of 5% or more and less than 20%),2 (Herbicidal ratio of 20% or more and less than 40%),3 (Herbicidal ratio of 40% or more and less than 70%),4 (Herbicidal ratio of 70% or more and less than 90%),4 (Herbicidal ratio of 70% or more and less than 90%),0 (Herbicidal ratio of 5% or less (almost no effect)),0 (Herbicidal ratio of 5% or less (almost no effect)),1 (Herbicidal ratio of 5% or more and less than 20%)
Cc1nnc(NC(=O)c2ccc(C(F)(F)F)n3c(N(C)C(C)C)nnc23)o1 [1-132],5 (Herbicidal ratio of 90% or more (almost completely withered)),4 (Herbicidal ratio of 70% or more and less than 90%),4 (Herbicidal ratio of 70% or more and less than 90%),3 (Herbicidal ratio of 40% or more and less than 70%),4 (Herbicidal ratio of 70% or more and less than 90%),5 (Herbicidal ratio of 90% or more (almost completely withered)),5 (Herbicidal ratio of 90% or more (almost completely withered)),4 (Herbicidal ratio of 70% or more and less than 90%),4 (Herbicidal ratio of 70% or more and less than 90%),4 (Herbicidal ratio of 70% or more and less than 90%)
Cc1nnc(NC(=O)c2ccc(C(F)(F)F)n3c(N(C)C4CCCCC4)nnc23)o1 [1-133],5 (Herbicidal ratio of 90% or more (almost completely withered)),4 (Herbicidal ratio of 70% or more and less than 90%),3 (Herbicidal ratio of 40% or more and less than 70%),0 (Herbicidal ratio of 5% or less (almost no effect)),0 (Herbicidal ratio of 5% or less (almost no effect)),2 (Herbicidal ratio of 20% or more and less than 40%),4 (Herbicidal ratio of 70% or more and less than 90%),2 (Herbicidal ratio of 20% or more and less than 40%),3 (Herbicidal ratio of 40% or more and less than 70%),2 (Herbicidal ratio of 20% or more and less than 40%)
CCN(C)c1nnc2c(C(=O)Nc3nnc(C)o3)ccc(C(F)(F)F)n12 [1-134],3 (Herbicidal ratio of 40% or more and less than 70%),2 (Herbicidal ratio of 20% or more and less than 40%),3 (Herbicidal ratio of 40% or more and less than 70%),2 (Herbicidal ratio of 20% or more and less than 40%),2 (Herbicidal ratio of 20% or more and less than 40%),4 (Herbicidal ratio of 70% or more and less than 90%),5 (Herbicidal ratio of 90% or more (almost completely withered)),1 (Herbicidal ratio of 5% or more and less than 20%),3 (Herbicidal ratio of 40% or more and less than 70%),3 (Herbicidal ratio of 40% or more and less than 70%)
CCN(CC)c1nnc2c(C(=O)Nc3nnc(C)o3)ccc(C(F)(F)F)n12 [1-135],3 (Herbicidal ratio of 40% or more and less than 70%),4 (Herbicidal ratio of 70% or more and less than 90%),4 (Herbicidal ratio of 70% or more and less than 90%),1 (Herbicidal ratio of 5% or more and less than 20%),2 (Herbicidal ratio of 20% or more and less than 40%),4 (Herbicidal ratio of 70% or more and less than 90%),5 (Herbicidal ratio of 90% or more (almost completely withered)),2 (Herbicidal ratio of 20% or more and less than 40%),3 (Herbicidal ratio of 40% or more and less than 70%),2 (Herbicidal ratio of 20% or more and less than 40%)
Cc1nnc(NC(=O)c2ccc(C(F)(F)F)n3c(N4CCCC4)nnc23)o1 [1-136],5 (Herbicidal ratio of 90% or more (almost completely withered)),3 (Herbicidal ratio of 40% or more and less than 70%),3 (Herbicidal ratio of 40% or more and less than 70%),2 (Herbicidal ratio of 20% or more and less than 40%),0 (Herbicidal ratio of 5% or less (almost no effect)),4 (Herbicidal ratio of 70% or more and less than 90%),4 (Herbicidal ratio of 70% or more and less than 90%),0 (Herbicidal ratio of 5% or less (almost no effect)),2 (Herbicidal ratio of 20% or more and less than 40%),2 (Herbicidal ratio of 20% or more and less than 40%)
CCN(C)c1nnc2c(C(=O)Nc3nnco3)ccc(C(F)(F)F)n12 [1-137],5 (Herbicidal ratio of 90% or more (almost completely withered)),5 (Herbicidal ratio of 90% or more (almost completely withered)),5 (Herbicidal ratio of 90% or more (almost completely withered)),3 (Herbicidal ratio of 40% or more and less than 70%),4 (Herbicidal ratio of 70% or more and less than 90%),5 (Herbicidal ratio of 90% or more (almost completely withered)),5 (Herbicidal ratio of 90% or more (almost completely withered)),3 (Herbicidal ratio of 40% or more and less than 70%),3 (Herbicidal ratio of 40% or more and less than 70%),3 (Herbicidal ratio of 40% or more and less than 70%)
CCN(CC)c1nnc2c(C(=O)Nc3nnco3)ccc(C(F)(F)F)n12 [1-138],5 (Herbicidal ratio of 90% or more (almost completely withered)),4 (Herbicidal ratio of 70% or more and less than 90%),5 (Herbicidal ratio of 90% or more (almost completely withered)),3 (Herbicidal ratio of 40% or more and less than 70%),4 (Herbicidal ratio of 70% or more and less than 90%),5 (Herbicidal ratio of 90% or more (almost completely withered)),5 (Herbicidal ratio of 90% or more (almost completely withered)),3 (Herbicidal ratio of 40% or more and less than 70%),3 (Herbicidal ratio of 40% or more and less than 70%),3 (Herbicidal ratio of 40% or more and less than 70%)
